Experimental data from US20130045931A1 (priority 2010, published 2013).

Tests used:
Gram-negative bacteria = settings: cited from earlier work
Gram-positive bacteria = settings: some Gram-positive bacteria; cited from earlier work
Phytophthora infestans = type: cell-based; settings: Phytophthora infestans (Isolate), 48 hours at 20° C. in the dark
[1] = tested on: Bacillus subtilis (DSM 347); test: Antibacterial growth inhibition (Lang et al. 2007)
[2] = tested on: Staphylococcus aureus (ATCC 33593, methicillin-resistant); test: Antibacterial test, clinically relevant strains (Sahly et al. 2003)
[3] = tested on: MAXF401NL (breast cancer); test: Antiproliferative activity, propidium iodide fluorescence assay (Dengler et al. 1995); type: cell-based, human
[4] = tested on: Staphylococcus epidermidis (Isolate, biofilm former); test: Antibacterial test, clinically relevant strains (Sahly et al. 2003)
[5] = tested on: Propionibacterium acnes (DSM 1897); test: Antibacterial activity against causative agent of acne vulgaris; type: cell-based
[6] = tested on: Pseudomonas aeruginosa (ATCC 10145); test: Antibacterial test, clinically relevant strains (Sahly et al. 2003); settings: biofilm former
[7] = tested on: intestinal tumor cell line HT29; test: CellTiter-Blue cell viability assay; type: cell-based, human
From the text: (§1) To determine the proliferation and cytotoxicity in respect of the liver tumor cell line HepG2 and the intestinal tumor cell line HT29, the effect on the metabolic activity of the cells was studied by means of the CellTiter-Blue® cell viability assay as described by O'Brien et al. (2000 Investigation of the alamar blue (resazurin) fluorescent dye for the assessment of mammalian cell cytotoxicity. European Journal of Biochemistry 267: 5421-6).

[8] = tested on: liver tumor cell line HepG2; test: CellTiter-Blue cell viability assay; type: cell-based, human
From the text: as §1

[9] = tested on: Staphylococcus lentus (DSM 6672); test: Antibacterial growth inhibition (Lang et al. 2007)
[10] = tested on: Staphylococcus aureus (ATCC 12600); test: Antibacterial test, clinically relevant strains (Sahly et al. 2003)
LXF529L (lung tumor) = test: Antiproliferative activity, propidium iodide fluorescence assay (Dengler et al. 1995); type: cell-based, human
GXF251L (gastric tumor) = test: as above; type: cell-based, human
[11] = tested on: Xanthomonas campestris (DSM 2405); type: cell-based
[12] = tested on: PAXF1657L (pancreatic tumor); test: Antiproliferative activity, propidium iodide fluorescence assay (Dengler et al. 1995); type: cell-based, human

For `Cc1cc2cc(O)c3c(c2c(O[C@@H]2C[C@H](N(C)C)[C@@H](O)[C@@H](C)O2)c1[C@@H]1C[C@H](N(C)C)[C@@H](O)[C@H](C)O1)C(=O)c1cccc(O)c1C3=O` [benzanthrin A], the “activity against Gram-negative bacteria” value (Gram-negative bacteria) is listed as “not against Gram-negative bacteria” and the “activity against Gram-positive bacteria” value (Gram-positive bacteria) is listed as “active against some Gram-positive bacteria”.
In the case of `Cc1cc2cc(O)c3c(c2c(O[C@@H]2C[C@H](N(C)C)[C@H](O)[C@@H](C)O2)c1[C@@H]1C[C@H](N(C)C)[C@@H](O)[C@H](C)O1)C(=O)c1cccc(O)c1C3=O` [benzanthrin B], the “activity against Gram-negative bacteria” value (Gram-negative bacteria) is listed as “not against Gram-negative bacteria” and the “activity against Gram-positive bacteria” value (Gram-positive bacteria) is listed as “active against some Gram-positive bacteria”.
Work on mayamycin yielded an IC50 (Phytophthora infestans) of 15.2 µM, an IC50 [1] of 8 µM and an IC50 [2] of 1.25 µM. For the same molecule, the IC50 [3] was 0.29 µM, the IC50 [4] was 0.31 µM and the IC50 [5] was 31.2 µM. The IC50 [6] was 2.5 µM, the IC50 [7] was 0.3 µM and the IC50 [8] was 0.2 µM. The IC50 [9] was 8 µM, the IC50 [10] was 2.5 µM and the IC50 (LXF529L (lung tumor)) was 0.16 µM. It also gave an IC50 (GXF251L (gastric tumor)) of 0.2 µM, an IC50 [11] of 30 µM and an IC50 [12] of 0.15 µM.
